# Data: paper PMC2676941 (The Journal of membrane biology, 2008)
# Assays:
# [1] = test system: plasmodial surface anion channel (PSAC); assay type: cell-based, Plasmodium falciparum; settings: for concentration to inhibit proline transport versus hydroxyproline transport: data not shown
# [2] = test system: plasmodial surface anion channel (PSAC); settings: compared with sorbitol and alanine transport; ref Lisk et al. 2007; cited from earlier work
structure (smiles),measurement,setting,value
O=C1CN(/N=C/c2ccc(-c3ccc([N+](=O)[O-])cc3)o2)C(O)=N1 [Dantrolene],concentration to inhibit proline transport versus hydroxyproline transport,[1],required higher concentrations
O=C(O)c1cc([N+](=O)[O-])ccc1NCCCc1ccccc1 [NPPB],hydroxyproline uptake (osmotic lysis over 90 min),[1]; 10 μM NPPB,abolished
same,proline-mediated lysis,[1]; 10 μM NPPB,slowed but not abolished
same,higher inhibitor concentration required to comparably reduce proline uptake,[1]; relative to the concentration that abolishes hydroxyproline uptake,10 fold
COc1ccc(Cl)cc1C(=O)NCCc1ccc(S(=O)(=O)NC(=O)NC2CCCCC2)cc1 [glybenclamide],concentration to inhibit proline transport versus hydroxyproline transport,[1],required higher concentrations
O=C(CCc1ccc(O)cc1)c1c(O)cc(O)cc1O[C@@H]1O[C@H](CO)[C@@H](O)[C@H](O)[C@H]1O [phloridzin],inhibition of PhTMA-Cl and isoleucine transport,[2],less effectively inhibited
